Experimental data from ChEMBL document CHEMBL1154418 (2007).
Converted amounts (≈) assume the structure as drawn. The source made the active and inactive calls. No cut-off for these calls is given here.

What was measured:
Escherichia coli [1] = assay: Antibacterial activity against tetracycline-resistant Escherichia coli clinical isolates expressing tet(A), tet(B) gene by broth microdilution method; assay type: functional
Escherichia coli [2] = assay: Antibacterial activity against tetracycline-resistant Escherichia coli clinical isolates expressing tet(B) gene by broth microdilution method; assay type: functional
Escherichia coli [3] = assay: Antibacterial activity against tetracycline-resistant Escherichia coli clinical isolates expressing tet(D) gene by broth microdilution method; assay type: functional
Escherichia coli [4] = assay: Antibacterial activity against tetracycline-resistant Escherichia coli clinical isolates by broth microdilution method; assay type: functional
Escherichia coli [5] = assay: Antibacterial activity against tetracycline-resistant Escherichia coli clinical isolates expressing tet(M) gene by broth microdilution method; assay type: functional, organism-based
Escherichia coli [6] = assay: Antibacterial activity against tetracycline-resistant Escherichia coli clinical isolates expressing tet(A), tet(E) gene by broth microdilution method; assay type: functional, organism-based
Escherichia coli [7] = assay: Antibacterial activity against tetracycline-resistant Escherichia coli clinical isolates expressing tet(C), tet(E) gene by broth microdilution method; assay type: functional, organism-based
Escherichia coli [8] = assay: Antibacterial activity against tetracycline-resistant Escherichia coli clinical isolates expressing tet(B), tet(C) gene by broth microdilution method; assay type: functional, organism-based
Escherichia coli [9] = assay: Antibacterial activity against tetracycline-resistant Escherichia coli with multiple drug resistance determinant isolates by broth microdilution method; assay type: functional
Escherichia coli [10] = assay: Antibacterial activity against tetracycline-resistant Escherichia coli clinical isolates expressing tet(E) gene by broth microdilution method; assay type: functional, organism-based
Escherichia coli [11] = assay: Antibacterial activity against Escherichia coli ATCC 25922 by broth microdilution method; assay type: functional, organism-based
Escherichia coli [12] = assay: Antibacterial activity against tetracycline-resistant Escherichia coli clinical isolates expressing tet(A), tet(B), tet(D) gene by broth microdilution method; assay type: functional, organism-based
Escherichia coli [13] = assay: Antibacterial activity against tetracycline-resistant Escherichia coli clinical isolates expressing tet(A), tet(B), tet(D), tet(E) gene by broth microdilution method; assay type: functional, organism-based
Escherichia coli [14] = assay: Antibacterial activity against tetracycline-resistant Escherichia coli with single drug resistance determinant isolates by broth microdilution method; assay type: functional
Escherichia coli [15] = assay: Antibacterial activity against tetracycline-resistant Escherichia coli clinical isolates expressing tet(D), tet(E) gene by broth microdilution method; assay type: functional, organism-based
Escherichia coli [16] = assay: Antibacterial activity against tetracycline-resistant Escherichia coli clinical isolates expressing tet(B), tet(D) gene by broth microdilution method; assay type: functional
Escherichia coli [17] = assay: Antibacterial activity against tetracycline-resistant Escherichia coli clinical isolates expressing tet(A), tet(D) gene by broth microdilution method; assay type: functional
Escherichia coli [18] = assay: Antibacterial activity against tetracycline-resistant Escherichia coli clinical isolates expressing tet(A), tet(M) gene by broth microdilution method; assay type: functional, organism-based
Escherichia coli [19] = assay: Antibacterial activity against tetracycline-resistant Escherichia coli clinical isolates expressing tet(A) gene by broth microdilution method; assay type: functional
Escherichia coli [20] = assay: Antibacterial activity against tetracycline-resistant Escherichia coli clinical isolates expressing tet(B), tet(E) gene by broth microdilution method; assay type: functional
Escherichia coli [21] = assay: Antibacterial activity against tetracycline-susceptible Escherichia coli clinical isolates by broth microdilution method; assay type: functional
Escherichia coli [22] = assay: Antibacterial activity against tetracycline-resistant Escherichia coli clinical isolates without tet(B) gene by broth microdilution method; assay type: functional
Escherichia coli [23] = assay: Antibacterial activity against tetracycline-resistant Escherichia coli clinical isolates expressing tet(B), tet(D), tet(E) gene by broth microdilution method; assay type: functional, organism-based
Escherichia coli [24] = assay: Antibacterial activity against tetracycline-resistant Escherichia coli clinical isolates expressing tet(C) gene by broth microdilution method; assay type: functional, organism-based

With `CN(C)c1ccc(O)c2c1C[C@H]1C[C@H]3[C@H](N(C)C)C(O)=C(C(N)=O)C(=O)[C@@]3(O)C(O)=C1C2=O` [MINOCYCLINE] the MIC50 (Escherichia coli [1]) was 16 µg/mL (≈ 35 µM), the MIC90 (Escherichia coli [1]) was 32 µg/mL (≈ 69.9 µM) and the MIC50 (Escherichia coli [2]) was 16 µg/mL (≈ 35 µM). For the same compound, the MIC90 (Escherichia coli [2]) was 32 µg/mL (≈ 69.9 µM), the MIC50 (Escherichia coli [3]) was 8 µg/mL (≈ 17.5 µM) and the MIC90 (Escherichia coli [3]) was 8 µg/mL (≈ 17.5 µM). For the same compound, the MIC50 (Escherichia coli [4]) was 4 µg/mL (≈ 8.74 µM), the MIC90 (Escherichia coli [4]) was 8 µg/mL (≈ 17.5 µM) and the Activity (Escherichia coli [5]) was “inactive”. For the same compound, the Activity (Escherichia coli [6]) was “inactive”, the Activity (Escherichia coli [7]) was “inactive” and the Activity (Escherichia coli [8]) was “inactive”. The MIC50 (Escherichia coli [9]) was 8 µg/mL (≈ 17.5 µM), the MIC90 (Escherichia coli [9]) was 32 µg/mL (≈ 69.9 µM) and the Activity (Escherichia coli [10]) was “inactive”. For the same compound, the Activity (Escherichia coli [11]) was “inactive”, the Activity (Escherichia coli [12]) was “inactive” and the Activity (Escherichia coli [13]) was “inactive”. For the same compound, the MIC50 (Escherichia coli [14]) was 8 µg/mL (≈ 17.5 µM), the MIC90 (Escherichia coli [14]) was 32 µg/mL (≈ 69.9 µM) and the Activity (Escherichia coli [15]) was “inactive”. The MIC50 (Escherichia coli [16]) was 16 µg/mL (≈ 35 µM), the MIC90 (Escherichia coli [16]) was 64 µg/mL (≈ 140 µM) and the MIC50 (Escherichia coli [17]) was 4 µg/mL (≈ 8.74 µM). The MIC90 (Escherichia coli [17]) was 16 µg/mL (≈ 35 µM), the Activity (Escherichia coli [18]) was “inactive” and the MIC50 (Escherichia coli [19]) was 2 µg/mL (≈ 4.37 µM). For the same compound, the MIC90 (Escherichia coli [19]) was 4 µg/mL (≈ 8.74 µM), the MIC50 (Escherichia coli [20]) was 8 µg/mL (≈ 17.5 µM) and the MIC90 (Escherichia coli [20]) was 32 µg/mL (≈ 69.9 µM). For the same compound, the MIC50 (Escherichia coli [21]) was 1 µg/mL (≈ 2.19 µM), the MIC90 (Escherichia coli [21]) was 2 µg/mL (≈ 4.37 µM) and the MIC50 (Escherichia coli [22]) was 4 µg/mL (≈ 8.74 µM). The MIC90 (Escherichia coli [22]) was 8 µg/mL (≈ 17.5 µM), the Activity (Escherichia coli [23]) was “inactive” and the Activity (Escherichia coli [24]) was “inactive”.

Compound `CN(C)[C@@H]1C(O)=C(C(N)=O)C(=O)[C@@]2(O)C(O)=C3C(=O)c4c(O)cccc4[C@@](C)(O)[C@H]3C[C@@H]12` [TETRACYCLINE] has an MIC50 (Escherichia coli [1]) of over 64 µg/mL, an MIC90 (Escherichia coli [1]) of over 64 µg/mL and an MIC50 (Escherichia coli [2]) of over 64 µg/mL. It also gave an MIC90 (Escherichia coli [2]) of over 64 µg/mL, an MIC50 (Escherichia coli [3]) of over 64 µg/mL and an MIC90 (Escherichia coli [3]) of over 64 µg/mL. The MIC50 (Escherichia coli [4]) was over 64 µg/mL, the MIC90 (Escherichia coli [4]) was over 64 µg/mL and the Activity (Escherichia coli [5]) was “inactive”. The Activity (Escherichia coli [6]) was “inactive”, the Activity (Escherichia coli [7]) was “inactive” and the Activity (Escherichia coli [8]) was “inactive”. The MIC50 (Escherichia coli [9]) was over 64 µg/mL, the MIC90 (Escherichia coli [9]) was over 64 µg/mL and the Activity (Escherichia coli [10]) was “inactive”. For the same compound, the Activity (Escherichia coli [12]) was “inactive”, the Activity (Escherichia coli [13]) was “inactive” and the MIC50 (Escherichia coli [14]) was over 64 µg/mL. For the same compound, the MIC90 (Escherichia coli [14]) was over 64 µg/mL, the Activity (Escherichia coli [15]) was “inactive” and the MIC50 (Escherichia coli [16]) was over 64 µg/mL. The MIC90 (Escherichia coli [16]) was over 64 µg/mL, the MIC50 (Escherichia coli [17]) was over 64 µg/mL and the MIC90 (Escherichia coli [17]) was over 64 µg/mL. The Activity (Escherichia coli [18]) was “inactive”, the MIC50 (Escherichia coli [19]) was over 64 µg/mL and the MIC90 (Escherichia coli [19]) was 64 µg/mL (≈ 144 µM). For the same compound, the MIC50 (Escherichia coli [20]) was over 64 µg/mL, the MIC90 (Escherichia coli [20]) was over 64 µg/mL and the MIC90 (Escherichia coli [21]) was 4 µg/mL (≈ 9 µM). For the same compound, the MIC50 (Escherichia coli [22]) was over 64 µg/mL, the MIC90 (Escherichia coli [22]) was over 64 µg/mL and the Activity (Escherichia coli [23]) was “inactive”. The Activity (Escherichia coli [24]) was “inactive”.

Work on `CN(C)c1cc(NC(=O)CNC(C)(C)C)c(O)c2c1C[C@H]1C[C@H]3[C@H](N(C)C)C(O)=C(C(N)=O)C(=O)[C@@]3(O)C(O)=C1C2=O` [TIGECYCLINE] yielded an MIC50 (Escherichia coli [1]) of 0.25 µg/mL (≈ 0.427 µM), an MIC90 (Escherichia coli [1]) of 0.5 µg/mL (≈ 0.854 µM) and an MIC50 (Escherichia coli [2]) of 0.25 µg/mL (≈ 0.427 µM). For the same compound, the MIC90 (Escherichia coli [2]) was 0.5 µg/mL (≈ 0.854 µM), the MIC50 (Escherichia coli [3]) was 0.25 µg/mL (≈ 0.427 µM) and the MIC90 (Escherichia coli [3]) was 0.5 µg/mL (≈ 0.854 µM). The MIC50 (Escherichia coli [4]) was 0.5 µg/mL (≈ 0.854 µM), the MIC90 (Escherichia coli [4]) was 1 µg/mL (≈ 1.71 µM) and the Activity (Escherichia coli [5]) was “inactive”. For the same compound, the Activity (Escherichia coli [6]) was “inactive”, the Activity (Escherichia coli [7]) was “inactive” and the Activity (Escherichia coli [8]) was “inactive”. For the same compound, the MIC50 (Escherichia coli [9]) was 0.25 µg/mL (≈ 0.427 µM), the MIC90 (Escherichia coli [9]) was 0.5 µg/mL (≈ 0.854 µM) and the Activity (Escherichia coli [10]) was “inactive”. For the same compound, the Activity (Escherichia coli [11]) was “inactive”, the Activity (Escherichia coli [12]) was “inactive” and the Activity (Escherichia coli [13]) was “inactive”. The MIC50 (Escherichia coli [14]) was 0.25 µg/mL (≈ 0.427 µM), the MIC90 (Escherichia coli [14]) was 0.5 µg/mL (≈ 0.854 µM) and the Activity (Escherichia coli [15]) was “inactive”. For the same compound, the MIC50 (Escherichia coli [16]) was 0.25 µg/mL (≈ 0.427 µM), the MIC90 (Escherichia coli [16]) was 0.5 µg/mL (≈ 0.854 µM) and the MIC50 (Escherichia coli [17]) was 0.5 µg/mL (≈ 0.854 µM). For the same compound, the MIC90 (Escherichia coli [17]) was 1 µg/mL (≈ 1.71 µM), the Activity (Escherichia coli [18]) was “inactive” and the MIC50 (Escherichia coli [19]) was 0.5 µg/mL (≈ 0.854 µM). It also gave an MIC90 (Escherichia coli [19]) of 0.5 µg/mL (≈ 0.854 µM), an MIC50 (Escherichia coli [20]) of 0.25 µg/mL (≈ 0.427 µM) and an MIC90 (Escherichia coli [20]) of 0.25 µg/mL (≈ 0.427 µM). The MIC50 (Escherichia coli [21]) was 0.25 µg/mL (≈ 0.427 µM), the MIC90 (Escherichia coli [21]) was 0.5 µg/mL (≈ 0.854 µM) and the MIC50 (Escherichia coli [22]) was 0.5 µg/mL (≈ 0.854 µM). The MIC90 (Escherichia coli [22]) was 0.5 µg/mL (≈ 0.854 µM), the Activity (Escherichia coli [23]) was “inactive” and the Activity (Escherichia coli [24]) was “inactive”.
